# Measurements published in ChEMBL document CHEMBL5137072, “Redox-Activatable Theranostic Co-Prodrug for Precise Tumor Diagnosis and Selective Combination Chemotherapy” (J Med Chem, 2022).
# Calls of active or inactive are those of the source. The rule behind the calls is not given here.
# Legend:
# [1] = system: A549; experiment: Induction of apoptosis in human A549 cells xenografted in BALB/c mouse at 12 umol/kg, iv administered for 20 days and measured every 3 days for 21 days by TUNEL assay; type: functional, organism-based; conditions: dose 12.0 µmol/kg, time 21.0 day
# [2] = system: A549; experiment: Induction of apoptosis in human A549 cells assessed as upregulation of Bax level at 1 to 4 uM incubated for 72 hrs by Western blot analysis; type: functional, cell-based; conditions: dose 1-4 µM
# [3] = system: A549; experiment: Synergistic antiproliferative activity against human A549 cells at 2.5 to 12.5 uM measured after 72 hrs in presence of SAHA by MTT assay; type: functional, cell-based; conditions: dose 2.5-12.5 µM
# [4] = molecular target: T1, Histone deacetylase (Homo sapiens) (UniProt Q13547+O15379+Q9UBN7+Q92769+Q9UQL6+Q8WUI4+Q9BY41+Q96DB2+P56524+Q9UKV0+Q969S8); experiment: Inhibition of HDAC in human A549 cells assessed as activation of Bax expression at 1 to 4 uM incubated for 72 hrs in presence of CDDO-Me by Western blot analysis; type: cell-based; conditions: dose 1-4 µM
# [5] = system: A549; experiment: Induction of necrosis in human A549 cells xenografted in BALB/c mouse at 12 umol/kg, iv administered for 20 days and measured every 3 days for 21 days by TUNEL assay; type: functional, organism-based; conditions: dose 12.0 µmol/kg, time 21.0 day
# [6] = system: HepG2; experiment: Synergistic antiproliferative activity against human HepG2 cells at 2.5 to 12.5 uM measured after 72 hrs in presence of SAHA by MTT assay; type: functional, cell-based; conditions: dose 2.5-12.5 µM
# [7] = molecular target: T1, Histone deacetylase (Homo sapiens); experiment: Inhibition of HDAC in human A549 cells assessed as activation of Bax expression at 1 to 4 uM incubated for 72 hrs in presence of SAHA by Western blot analysis; type: cell-based; conditions: dose 1-4 µM
# [8] = system: HFL1; experiment: Synergistic antiproliferative activity against human HFL1 cells at 2.5 to 12.5 uM measured after 72 hrs in presence of CDDO-Me by MTT assay; type: toxicity, cell-based; conditions: hfl1, 72 h, dose 2.5-12.5 µM
# [9] = system: HepG2; experiment: Synergistic antiproliferative activity against human HepG2 cells at 2.5 to 12.5 uM measured after 72 hrs in presence of CDDO-Me by MTT assay; type: functional, cell-based; conditions: dose 2.5-12.5 µM
# [10] = system: MCF7; experiment: Synergistic antiproliferative activity against human MCF7 cells at 2.5 to 12.5 uM measured after 72 hrs in presence of SAHA by MTT assay; type: functional, cell-based; conditions: dose 2.5-12.5 µM
# [11] = Drug localization in mitochondria of human A549 cells measured after 4 hrs by Mito Tracker Green FM based confocal laser scanning microscopy analysis; type: ADME; conditions: a549, 4 h
# [12] = system: A549; experiment: Synergistic antiproliferative activity against human A549 cells at 2.5 to 12.5 uM measured after 72 hrs in presence of CDDO-Me by MTT assay; type: functional, cell-based; conditions: dose 2.5-12.5 µM
# [13] = system: A549; experiment: Induction of apoptosis in human A549 cells assessed as upregulation of Mcl-1 level at 1 to 4 uM incubated for 72 hrs by Western blot analysis; type: functional, cell-based; conditions: dose 1-4 µM
# [14] = system: MCF7; experiment: Synergistic antiproliferative activity against human MCF7 cells at 2.5 to 12.5 uM measured after 72 hrs in presence of CDDO-Me by MTT assay; type: functional, cell-based; conditions: dose 2.5-12.5 µM
# [15] = system: HT-29; experiment: Synergistic antiproliferative activity against human HT-29 cells at 2.5 to 12.5 uM measured after 72 hrs in presence of CDDO-Me by MTT assay; type: functional, cell-based; conditions: dose 2.5-12.5 µM
# [16] = Drug distribution in BALB/c mouse xenografted with human A549 cells assessed as increase in fluorescence in tumor signal at 20 mg/kg, iv measured after 4 to 24 hrs post injection; type: ADME, organism-based; conditions: in vivo, time 4-24 hrs
# [17] = Toxicity in ICR mouse assessed as effect on ALT level at 12 umol/kg, ip measured after 12 hrs; type: organism-based; conditions: in vivo, dose 12 µmol/kg
# [18] = system: A549; experiment: Induction of apoptosis in human A549 cells assessed as upregulation of cleaved-PARP level at 1 to 4 uM incubated for 72 hrs by Western blot analysis; type: functional, cell-based; conditions: dose 1-4 µM
# [19] = system: A549; experiment: Induction of apoptosis in human A549 cells xenografted in BALB/c mouse at 12 umol/kg, iv administered for 20 days and measured every 3 days for 21 days by H and E staining based assay; type: functional; conditions: dose 12 µmol/kg, time 21 day
# [20] = Toxicity in ICR mouse assessed as accumulation of lipid droplets in liver at 12 umol/kg, ip measured after 12 hrs by H and E staining based analysis; type: organism-based; conditions: in vivo, dose 12 µmol/kg
# [21] = molecular target: T2, Protein deacetylase HDAC6 (Homo sapiens) (UniProt Q9UBN7); experiment: Inhibition of HDAC6 in human A549 cells assessed as reduction in HDAC expression at 1 to 4 uM incubated for 72 hrs by Western blot analysis; type: cell-based; conditions: dose 1-4 µM
# T2 sequence (whole entry): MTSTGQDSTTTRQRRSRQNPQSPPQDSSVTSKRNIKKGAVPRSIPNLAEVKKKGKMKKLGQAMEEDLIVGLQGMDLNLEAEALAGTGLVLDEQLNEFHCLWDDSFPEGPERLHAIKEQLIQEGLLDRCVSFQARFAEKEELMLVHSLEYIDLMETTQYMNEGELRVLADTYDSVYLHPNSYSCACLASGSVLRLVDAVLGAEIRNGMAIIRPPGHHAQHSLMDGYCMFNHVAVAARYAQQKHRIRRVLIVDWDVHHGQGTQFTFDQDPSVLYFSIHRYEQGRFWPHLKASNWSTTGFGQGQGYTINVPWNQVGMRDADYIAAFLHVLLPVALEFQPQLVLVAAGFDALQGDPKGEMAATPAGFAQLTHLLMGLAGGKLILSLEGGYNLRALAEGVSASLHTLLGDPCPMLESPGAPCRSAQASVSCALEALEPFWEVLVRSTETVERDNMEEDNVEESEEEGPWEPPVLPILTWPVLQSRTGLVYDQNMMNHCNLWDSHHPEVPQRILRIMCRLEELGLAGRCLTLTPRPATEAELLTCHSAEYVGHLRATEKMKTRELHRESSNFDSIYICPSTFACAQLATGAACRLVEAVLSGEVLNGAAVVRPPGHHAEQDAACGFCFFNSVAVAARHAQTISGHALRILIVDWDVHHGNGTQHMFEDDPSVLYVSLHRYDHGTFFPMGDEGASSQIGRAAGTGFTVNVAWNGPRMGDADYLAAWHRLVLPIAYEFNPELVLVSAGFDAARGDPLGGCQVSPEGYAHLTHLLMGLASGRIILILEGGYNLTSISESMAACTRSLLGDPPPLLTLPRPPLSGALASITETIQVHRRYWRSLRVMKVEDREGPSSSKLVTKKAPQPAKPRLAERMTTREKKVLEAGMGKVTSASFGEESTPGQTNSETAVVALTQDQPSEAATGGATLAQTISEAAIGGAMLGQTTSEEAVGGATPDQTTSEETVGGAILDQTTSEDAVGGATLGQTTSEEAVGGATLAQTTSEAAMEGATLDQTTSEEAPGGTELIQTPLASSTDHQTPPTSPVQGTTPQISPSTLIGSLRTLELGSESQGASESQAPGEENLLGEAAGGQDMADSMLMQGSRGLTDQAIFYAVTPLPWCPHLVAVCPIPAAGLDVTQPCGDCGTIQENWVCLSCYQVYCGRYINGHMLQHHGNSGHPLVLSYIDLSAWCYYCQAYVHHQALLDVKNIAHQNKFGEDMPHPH
# [22] = system: A549; experiment: Induction of mitochondrial membrane depolarization in human A549 cells at 15 uM incubated for 2 hrs by JC-1 staining based analysis; type: functional, cell-based
# [23] = system: A549; experiment: Induction of necrosis in human A549 cells xenografted in BALB/c mouse at 12 umol/kg, iv administered for 20 days and measured every 3 days for 21 days by H and E staining based assay; type: functional, organism-based; conditions: dose 12.0 µmol/kg, time 21.0 day
# [24] = system: HFL1; experiment: Synergistic antiproliferative activity against human HFL1 cells at 2.5 to 12.5 uM measured after 72 hrs in presence of SAHA by MTT assay; type: toxicity, cell-based; conditions: hfl1, 72 h, dose 2.5-12.5 µM
# [25] = system: L02; experiment: Synergistic antiproliferative activity against human L02 cells at 2.5 to 12.5 uM measured after 72 hrs in presence of CDDO-Me by MTT assay; type: toxicity, cell-based; conditions: l02, 72 h, dose 2.5-12.5 µM
# [26] = system: HT-29; experiment: Synergistic antiproliferative activity against human HT-29 cells at 2.5 to 12.5 uM measured after 72 hrs in presence of SAHA by MTT assay; type: functional, cell-based; conditions: dose 2.5-12.5 µM
# [27] = Toxicity in ICR mouse assessed as effect on AST level at 12 umol/kg, ip measured after 12 hrs; type: organism-based; conditions: in vivo, dose 12 µmol/kg
# [28] = Toxicity in BALB/c mouse xenografted with human A549 cells assessed as change in body weight at 12 umol/kg, iv administered for 20 days and measured every 3 days for 21 days; type: organism-based; conditions: in vivo, 504 h, dose 12 µmol/kg, time 21 day
# [29] = system: L02; experiment: Synergistic antiproliferative activity against human L02 cells at 2.5 to 12.5 uM measured after 72 hrs in presence of SAHA by MTT assay; type: toxicity, cell-based; conditions: l02, 72 h, dose 2.5-12.5 µM
# [30] = system: A549; experiment: Induction of DNA damage in human A549 cells assessed as increase in H2AX level incubated for 72 hrs by Western blot analysis; type: functional, cell-based; conditions: dose 1-4 µM, DDE = dose-dependent effect
# [31] = system: A549; experiment: Induction of ROS accumulation in human A549 cells at 15 uM incubated for 2 hrs by DCFH2-DA staining based confocal microscopic analysis; type: functional, cell-based
# [32] = Stability of the compound in rat plasma assessed as prodrug release at 100 ug/ml measured for 8 to 12 hrs by HPLC analysis; type: ADME, cell-free; conditions: at 100 µg/mL, time 8-12 hrs
# [33] = system: A549; experiment: Antitumor activity at human A549 cells xenografted in BALB/c mouse assessed as reduction in tumor growth at 12 umol/kg, iv administered for 20 days and measured every 3 days for 21 days; type: functional, organism-based; conditions: dose 12.0 µmol/kg, time 21.0 day
# [34] = Stability of the compound in rat plasma assessed as prodrug release at 100 ug/ml measured for 8 hrs by HPLC analysis; type: ADME, cell-free; conditions: at 100 µg/mL
# [35] = system: A549; experiment: Antitumor activity at human A549 cells xenografted in BALB/c mouse assessed as reduction in tumor growth at 12 umol/kg, iv administered for 20 days and measured every 3 days for 21 days in presence of CDDO-Me; type: functional, organism-based; conditions: dose 12.0 µmol/kg, time 21.0 day
# [36] = Toxicity in ICR mouse assessed as effect on AST level at 12 umol/kg, ip measured after 12 hrs in presence of CDDO-Me; type: organism-based; conditions: in vivo, dose 12 µmol/kg
# [37] = Toxicity in ICR mouse assessed as effect on ALT level at 12 umol/kg, ip measured after 12 hrs in presence of CDDO-Me; type: organism-based; conditions: in vivo, dose 12 µmol/kg
compound,measurement,setting,value
COC(=O)[C@]12CCC(C)(C)C[C@H]1[C@H]1C(=O)C=C3[C@@]4(C)C(ONC(=O)CCCCCCC(=O)Nc5ccccc5)C(C#N)=C(OCc5ccc(OC(=O)C(C)SCCCSC(C)C(=O)Oc6ccc7c(c6)OC6=C(/C=C/C8=[N+](CCCc9cn(CCOCCOCCNC(=O)CCCC[C@H]%10SC[C@H]%11NC(=O)N[C@H]%11%10)nn9)c9ccc%10ccccc%10c9C8(C)C)CCCC6=C7)cc5)C(C)(C)[C@@H]4CC[C@@]3(C)[C@]1(C)CC2.[I-] (some centres undefined),Activity,[1],Active
same,Activity,[2],Active
same,Activity,[3],Active
same,inhibition,[4],Active
same,Activity,[5],Active
same,Activity,[6],Active
same,inhibition,[7],Active
same,Activity,[8],Non-Toxic
same,Activity,[9],Active
same,Activity,[10],Active
same,Drug uptake,[11],Active
same,Activity,[12],Active
same,Activity,[13],Active
same,Activity,[14],Active
same,Activity,[15],Active
same,Drug uptake,[16],Active
same,Activity,[17],Non-Toxic
same,Activity,[18],Active
same,Activity,[19],53.3%
same,Activity,[20],Non-Toxic
same,inhibition,[21],Active
same,Activity,[22],Active
same,Activity,[23],Active
same,Activity,[24],Non-Toxic
same,Activity,[25],Non-Toxic
same,Activity,[26],Active
same,Activity,[27],Non-Toxic
same,Activity,[28],Non-Toxic
same,Activity,[29],Non-Toxic
same,Activity,[30],Dde
same,Activity,[31],Active
same,Drug metabolism,[32],20%
same,Activity,[33],Active
same,Drug metabolism,[34],< 10%
O=C(CCCCCCC(=O)Nc1ccccc1)NO [VORINOSTAT],Activity,[8],Non-Toxic
same,Activity,[35],Active
same,Activity,[25],Non-Toxic
same,Activity,[36],Toxic
same,Activity,[37],Toxic
